The text below walks through data of US20040067531A1, “Methods of modulating protein tyrosine kinase function with substituted indolinone compounds” (SUGEN, INC., priority 1997, published 2004).

Each structure is given as a SMILES string.

Experiment [1] deals with EGF-induced BrdU incorporation. As to the kind of experiment: EGF-induced BrdU incorporation assay. The experiment is classed as cell-based. The conditions noted are these: read-out: EGF-Induced BrdU Incorp. IC50. As for the experimental part: (§1) PDGF-, FGF-, and EGF-Induced BRDU Incorporation Assay
(§2) 1. Cells were seeded at 8000 cells/well in DMEM, 10% CS, 2 mM Gln in a 96 well plate. Cells were incubated overnight at 37° C. in 5% CO2.
(§3) 2. After 24 hours, the cells were washed with PBS, and then were serum starved in serum free medium (0% CS DMEM with 0.1% BSA) for 24 hours.
(§4) 3. On day 3, ligand (PDGF=3.8 nM, prepared in DMEM with 0.1% BSA) and test compounds were added to the cells simultaneously. The negative control wells received serum free DMEM with 0.1% BSA only; the positive control cells received the ligand (PDGF) but no test compound. Test compounds were prepared in serum free DMEM with ligand in a 96 well plate, and serially diluted for 7 test concentrations.
(§5) 4. After 20 hours of ligand activation, diluted BrdU labeling reagent (1:100 in DMEM, 0.1% BSA) was added and the cells were incubated with BrdU (final concentration=10 μM) for 1.5 hours.
(§6) 5. After incubation with labeling reagent, the medium was removed by decanting and tapping the inverted plate on a paper towel. FixDenat solution was added (50 μL/well) and the plates were incubated at room temperature for 45 minutes on a plate shaker.
(§7) 6. The FixDenat solution was thoroughly removed by decanting and tapping the inverted plate on a paper towel. Milk was added (5% dehydrated milk in PBS, 200 μL/well) as a blocking solution and the plate was incubated for 30 minutes at room temperature on a plate shaker.
(§8) 7. The blocking solution was removed by decanting and the wells were washed once with PBS. Anti-BrdU-POD solution (1:100 dilution in PBS, 1% BSA) was added (100 μL/well), and the plate was incubated for 90 minutes at room temperature on a plate shaker.
(§9) 8. The antibody conjugate was thoroughly removed by decanting and rinsing the wells 5 times with PBS, and the space was dried by inverting and tapping on a paper towel.
(§10) 9. TMB substrate solution was added (100 μL/well) and incubated for 20 minutes at room temperature on a plate shaker until color development was sufficient for photometric detection.
(§11) 10. The absorbance of the samples were measured at 410 nm (in “dual wavelength” mode with a filter reading at 490 nm, as a reference wavelength) on a Dynatech ELISA plate reader.
(§12) The IC50 values were measured for several of the compounds of the invention. These values are depicted in Table 10.

The test system of a further experiment is HUV-EC-C cells; VEGF. As to the kind of experiment: HUVEC-VEGF 3H-thymidine incorporation assay. The experiment is classed as cell-based, human. As to conditions: Homo sapiens. As for the experimental part: The following protocol is used to measure a compound's activity against VEGF and aFGF, all of which are expressed by HUVEC cells.
1. […] After cells have detached from the flask, add an equal volume of assay medium and transfer to a 50 mL sterile centrifuge tube (Fisher Scientific; catalogue no. 05-539-6).
2. Wash the cells with about 35 mL assay medium in the 50 mL sterile centrifuge tube by adding the assay medium, centrifuge for 10 minutes at approximately 200×g, aspirate the supernatant, and resuspend with 35 mL D-PBS. Repeat the wash two more times with D-PBS, resuspend the cells in about 1 mL assay medium/15 cm^2 of tissue culture flask. Assay medium consists of F12K medium (Gibco BRL; catalogue no. 21127-014)+0.5% heat-inactivated fetal bovine serum. Count the cells with a Coulter Counter® (Coulter Electronics, Inc.) and add assay medium to the cells to obtain a concentration of 0.8-1.0×10^5 cells/mL.
3. Add cells to 96-well flat-bottom plates at 100 μL/well or 0.8-1.0×10^4 cells/well; incubate ˜24h at 37° C., 5% CO^2.
1. Make up two-fold drug titrations in separate 96-well plates, generally 50 μM on down to 0 μM. Use the same assay medium as mentioned in day 0, step 2 above. Titrations are made by adding […] of drug at 200 μM (4× the final well concentration) to the top well of a particular plate column. Since the stock drug concentration is usually 20 mM in DMSO, the 200 μM drug concentration contains 2% DMSO.
Therefore, diluent made up to 2% DMSO in assay medium (F12K+0.5% fetal bovine serum) is used as diluent for the drug titrations in order to dilute the drug but keep the DMSO concentration constant. Add this diluent to the remaining wells in the column at 60 μL/well. Take 60 μL from the 120 μL of 200 μM drug dilution in the top well of the column and mix with the 60 μL in the second well of the column. Take 60 μL from this well and mix with the 60 μL in the third well of the column, and so on until two-fold titrations are completed. When the next-to-the-last well is mixed, take 60 μL of the 120 μL in this well and discard it. Leave the last well with 60 μL of DMSO/media diluent as a non-drug-containing control. Make 9 columns of titrated drug, enough for triplicate wells each for 1) VEGF (obtained from Pepro Tech Inc., catalogue no. 100-200, 2) endothelial cell growth factor (ECGF) (also known as acidic fibroblast growth factor, or aFGF) (obtained from Boehringer Mannheim Biochemica, catalogue no. 1439 600); or, 3) human PDGF B/B (1276-956, Boehringer Mannheim, Germany) and assay media control. ECGF comes as a preparation with sodium heparin.
2. Transfer 50 μL/well of the drug dilutions to the 96-well assay plates containing the 0.8-1.0×10^4 cells/100 μL/well of the HUV-EC-C cells from day 0. and incubate ˜2 h at 37° C., 5% CO2.
3. […] As with the drugs, the growth factor concentrations are 4× the desired final concentration. Use the assay media from day 0 step 2 to make the concentrations of growth factors. Incubate approximately 24 hours at 37° C., 5% CO2. Each well will have 50 μL drug dilution, 50 μL growth factor or media, and 100 μL cells, =200 μL/well total. Thus the 4× concentrations of drugs and growth factors become 1× once everything has been added to the wells.
1. Add ^3H-thymidine (Amersham; catalogue no. TRK-686) at 1 μCi/well (10 μL/well Of 100 μCi/mi solution made up in RPMI media +10% heat-inactivated fetal bovine serum) and incubate μ24 h at 37° C., 5% CO2. RPMI was obtained from Gibco BRL, catalogue no. 11875-051.
1. Freeze plates overnight at […]
1. Thaw plates and harvest with a 96-well plate harvester (Tomtec Harvester 96®) onto filter mats (Wallac; catalogue no. 1205-401); read counts on a Wallac Betaplate™ liquid scintillation counter.
The IC50 values were measured for several of the compounds of the invention.
On the technique in general: Dividing cells build labelled thymidine or BrdU into new DNA.

Experiment [2] concerns FGF-induced BrdU incorporation. The experiment is described as follows: FGF-induced BrdU incorporation assay. The experiment is classed as cell-based. The conditions noted are these: read-out: FGF-Induced BrdU Incorp. IC50. As for the experimental part: as §1, §2, §3, §4, §5, §6, §7, §8, §9, §10, §11, §12

Regarding `Cc1c[nH]c(C=C2C(=O)Nc3ccc(Br)cc32)c1CCC(=O)O` [IN-031, 3-[2-(5-Bromo-2-oxo-1,2-dihydro-indol-3-ylidenemethyl)-4-methyl-1H-pyrrol-3-yl]-propionic acid], the IC50 (in general, the midpoint of a concentration-inhibition curve) in experiment [1] was over 50 µM; in the experiment on HUV-EC-C cells; VEGF, 0.04 µM; in experiment [2], over 50 µM.
In the case of `Cc1ccc2c(c1)C(=Cc1[nH]c3c(c1CCC(=O)O)CCCC3)C(=O)N2` [IN-005, 3-[2-(5-Methyl-2-oxo-1,2-dihydro-indol-3-ylidenemethyl)-4,5,6,7-tetrahydro-1H-indol-3-yl]-propionic acid], the IC50 came to 61.5 µM in experiment [1], 0.001 µM with HUV-EC-C cells; VEGF and 30.1 µM in experiment [2].
